In US10538549B2, “NNA-DNA adducts as biomarkers for detecting exposure to thirdhand smoke” (The Regents of the University of California, priority 2014, dated 2020):
“Also recorded” adds a separate entry of the source.

Columns and labels:
HepG2 cells = assay: alkaline Comet assay, DNA strand breaks; type: cell-based; details: human HepG2 cells, exposure 24 h, 37° C.
Text: (§1) We recently examined the genotoxicity of NNA in human HepG2 cells as well as its ability to modify both 2-deoxyguanosine (dGuo) and 2-deoxycytodine (dCyt) in vitro. […] In the reaction of NNA with dGuo, several adducts were identified with HPLC-UV spectrum, ESI-MS/MS and NMR. These include 8-oxo-2′-deoxyguanosine (8-oxo-dG), 0^6-methyl-dG, and N^2-methyl-dG. NNA also forms a bulky dG adduct with m/z 455.17 for (M+H)^+ in mass spectrum, which is due to the condensation of NNA and dG with the elimination of H2O and two hydrogen molecules. In addition, NNA causes novel DNA sugar damage, forming […]. […] In addition, the NNA-specific DNA adducts identified can be used as specific biomarkers of THS exposure.
FIGS. 3A and 3B: Genotoxic effect of NNA in human HepG2 cells as measured by the Comet assay. HepG2 cells were exposed to varying doses of NNA dissolved in DMEM medium with/without 10% FBS for 24 h. […] (A) Effect of acute THS and THS+HONO. HepG2 cells were exposed to samples at 37° C. for 24 h. The extent of DNA damage was analyzed by % DNA in tail to total DNA from 90 cells. (B) HepG2 cells were exposed to chronic THS at varying dilutions under identical conditions as above.
(§2) Using the alkaline Comet assay, we examined the potential of NNA to cause DNA strand breaks in cultured human hepatocellular carcinoma (HepG2) cells. […]

2-deoxycytidine (dCyt) = assay: reaction of NNA with dCyt in vitro, adduct formation
Text: NNA (1-(N-methyl-N-nitrosamino)-1-(3-pyridinyl)-4-butanal) is an important member of the carcinogenic/mutagenic tobacco-specific nitrosamines (TSNAs) and an unique constituent found in the most recently identified health risk called thirdhand smoke (THS). We studied the reactions of NNA with 2-deoxyguanosine (dGuo) and 2-deoxycytidine (dCyt) in vitro with regard to its ability to form stable base adducts, which have not been reported in literature at all. Herein we have identified and characterize potential specific THS biomarkers. We also describe experimental evidence for detrimental effects from exposure to THS, which could be useful for framing and enforcing new policies against indoor smoking.
Herein we describe the first evidence that reaction of NNA with dCyt in vitro results in formation of stable base adducts too, which have not been hereto for been reported in literature.
Using the alkaline Comet assay, we examined the potential of NNA to cause DNA strand breaks in cultured human hepatocellular carcinoma (HepG2) cells. Moreover, the ability of NNA to form DNA adducts with dGuo and dCyt in vitro was investigated and characterized using HPLC-UV, electrospray ionization mass spectrometry (ESI-MS/MS) and NMR. […]

2-deoxyguanosine (dGuo) = assay: reaction of NNA with dGuo in vitro, DNA adduct formation; details: HPLC-UV, ESI-MS/MS, NMR
Text: as §1
We discovered that NNA reacts with dGuo (“dG”) and dCyt (“dC”) to form various DNA adducts. […] The chemical structure of this adduct has been proposed and validated using various NMR experiments. Because of its specific structural characteristic, this adduct can serve as a DNA damage “signature” by NNA, thus a potential biomarker for monitoring exposure to thirdhand smoke.
as §2

CN(N=O)C(CCC=O)c1cccnc1 (stereo not shown) [NNA, 1-(N-methyl-N-nitrosamino)-1-(3-pyridinyl)-4-butanal]
DNA damage / DNA strand breaks (Comet assay) (HepG2 cells): concentration-dependent DNA strand breaks; also recorded: induces DNA damage at low nanomolar concentrations; also recorded: results in DNA strand breaks in exposed cells; also recorded: causes significant DNA damage at nM concentrations
formation of adducts with dC (2-deoxycytidine (dCyt)): reacts with dC to form multiple adducts
formation of DNA adducts with dGuo (2-deoxyguanosine (dGuo)): forms multiple DNA adducts in vitro

CN(CCCC(=O)c1cccnc1)N=O [NNK, 4-(methylnitrosamino)-1-(3-pyridyl)-1-butanone, reference compound]
DNA damage / DNA strand breaks (Comet assay) (HepG2 cells): induces DNA damage at low nanomolar concentrations; also recorded: causes significant DNA damage at nM concentrations
